Reference: the NIST ThermoML archive (doi:10.1016/j.fluid.2013.06.048)
Values joined by “and” are separate entries in the source; they are usually repeats but may differ in a detail not shown here. Equal entries are not always repeated. Numbers after ± are expanded uncertainties.

conditions: Liquid; pulse-heating method

| Structure (SMILES) | Critical pressure | Critical temperature |
| --- | --- | --- |
| OCCCO [propan-1,3-diol] | 6380 ± 160 kPa and 6300 ± 200 kPa and 6550 ± 160 kPa | 721 ± 24 K and 722 ± 24 K and 718.2 ± 24 K |
| OCCCCCCO [1,6-hexanediol] | 3400 ± 160 kPa and 4080 ± 160 kPa |  |
| OCCCCCO [1,5-pentanediol] | 4000 ± 160 kPa | 731 ± 24 K |
| OCCCCCCCCCCCCO [1,12-dihydroxydodecane] | 1930 ± 160 kPa | 798 ± 24 K |
| OCCCCO [1,4-butanediol] | 5400 ± 160 kPa and 6220 ± 160 kPa and 5520 ± 160 kPa | 728 ± 24 K and 727 ± 24 K and 723.8 ± 24 K |
| OCCCCCCCCCO [1,9-nonanediol] | 2400 ± 160 kPa | 760 ± 24 K |
| OCCCCCCCCCCO [1,10-decanediol] | 2200 ± 160 kPa | 770 ± 24 K |
| OCCCCCCCCO [1,8-octanediol] | 2700 ± 160 kPa | 752 ± 24 K |
